Test results: ChEMBL document CHEMBL3885861, “Open TG-GATES”

Species: Rattus norvegicus
Test: Open TG-GATES - Regimen: Single
Assay type: toxicity, organism-based, Sprague-Dawley
Set-up: regimen Single, gender Male, age 6 weeks
Conditions: in vivo, po, 40 mg/kg, route gavage, dose level Low; for APTT / Bas / Eos / Fbg / Hb / Ht / Lym / MCH / MCHC / MCV / Mono / Neu / PT / Plat / RBC / Ret / WBC: tissue Blood; for KIDNEY_L / KIDNEY_R / KIDNEY_TOTAL: tissue Kidney; for LIVER: tissue Liver; for A/G / ALP / ALT / AST / BUN / CRE / Ca / Cl / DBIL / GLC / IP / K / LDH / Na / PL / RALB / TBIL / TC / TG / TP / gamma-GTP: tissue Plasma

Cc1cccc(C)c1OCC(C)N (configuration not stated) [MEXILETINE]
TERMINAL_BW (3 h): 218.4 g
APTT (3 h): 20.9 s
Bas (3 h): 0%
Eos (3 h): 0.4%
Fbg (3 h): 302.8 mg/dL
Hb (3 h): 13.1 g/dL
Ht (3 h): 40.8%
Lym (3 h): 80.4%
MCH (3 h): 20.6 pg
MCHC (3 h): 32.1%
MCV (3 h): 64.2 fL
Mono (3 h): 2.2%
Neu (3 h): 16%
PT (3 h): 15.9 s
Plat (3 h): 119 x10_4/uL
RBC (3 h): 634.2 x10_4/ul
Ret (3 h): 7.8%
WBC (3 h): 92.2 x10_2/uL
KIDNEY_L (3 h): 1 g
KIDNEY_R (3 h): 1 g
KIDNEY_TOTAL (3 h): 1.9 g
LIVER (3 h): 10.2 g
A/G (3 h): 1.2
ALP (3 h): 1641.6 IU/L
ALT (3 h): 51 IU/L
AST (3 h): 79.6 IU/L
BUN (3 h): 13.6 mg/dL
CRE (3 h): 0.2 mg/dL
Ca (3 h): 10.7 mg/dL
Cl (3 h): 105.6 meq/L
DBIL (3 h): 0 mg/dL
GLC (3 h): 188.8 mg/dL
IP (3 h): 8.8 mg/dL
K (3 h): 4 meq/L
LDH (3 h): 207.4 IU/L
Na (3 h): 142.4 meq/L
PL (3 h): 149.2 mg/dL
RALB (3 h): 3 g/dL
TBIL (3 h): 0.01 mg/dL
TC (3 h): 84.4 mg/dL
TG (3 h): 67.6 mg/dL
TP (3 h): 5.5 g/dL
gamma-GTP (3 h): 1.2 IU/L
TERMINAL_BW (6 h): 214 g
APTT (6 h): 23.3 s
Bas (6 h): 0%
Eos (6 h): 0.8%
Fbg (6 h): 314 mg/dL
Hb (6 h): 13.5 g/dL
Ht (6 h): 40.8%
Lym (6 h): 83.6%
MCH (6 h): 20.9 pg
MCHC (6 h): 33.2%
MCV (6 h): 63 fL
Mono (6 h): 2.6%
Neu (6 h): 11.4%
PT (6 h): 16 s
Plat (6 h): 118.1 x10_4/uL
RBC (6 h): 647.4 x10_4/ul
Ret (6 h): 7.2%
WBC (6 h): 88.1 x10_2/uL
KIDNEY_L (6 h): 0.9 g
KIDNEY_R (6 h): 0.9 g
KIDNEY_TOTAL (6 h): 1.8 g
LIVER (6 h): 9.2 g
A/G (6 h): 1.2
ALP (6 h): 1364.6 IU/L
ALT (6 h): 43 IU/L
AST (6 h): 72.8 IU/L
BUN (6 h): 10.4 mg/dL
CRE (6 h): 0.2 mg/dL
Ca (6 h): 10.6 mg/dL
Cl (6 h): 105.6 meq/L
DBIL (6 h): 0 mg/dL
GLC (6 h): 180.8 mg/dL
IP (6 h): 8.5 mg/dL
K (6 h): 4.2 meq/L
LDH (6 h): 153.4 IU/L
Na (6 h): 141 meq/L
PL (6 h): 128.8 mg/dL
RALB (6 h): 3 g/dL
TBIL (6 h): 0.022 mg/dL
TC (6 h): 69 mg/dL
TG (6 h): 68 mg/dL
TP (6 h): 5.5 g/dL
gamma-GTP (6 h): 1.4 IU/L
TERMINAL_BW (9 h): 217.2 g
APTT (9 h): 22.4 s
Bas (9 h): 0%
Eos (9 h): 0.6%
Fbg (9 h): 293.8 mg/dL
Hb (9 h): 12.7 g/dL
Ht (9 h): 39.7%
Lym (9 h): 73.6%
MCH (9 h): 20.3 pg
MCHC (9 h): 32%
MCV (9 h): 63.6 fL
Mono (9 h): 2.6%
Neu (9 h): 22%
PT (9 h): 16.2 s
Plat (9 h): 106.8 x10_4/uL
RBC (9 h): 624.6 x10_4/ul
Ret (9 h): 8.1%
WBC (9 h): 122.3 x10_2/uL
KIDNEY_L (9 h): 0.9 g
KIDNEY_R (9 h): 0.9 g
KIDNEY_TOTAL (9 h): 1.9 g
LIVER (9 h): 9.3 g
A/G (9 h): 1.2
ALP (9 h): 1650.8 IU/L
ALT (9 h): 40.2 IU/L
AST (9 h): 65.2 IU/L
BUN (9 h): 11.6 mg/dL
CRE (9 h): 0.2 mg/dL
Ca (9 h): 10.4 mg/dL
Cl (9 h): 106.2 meq/L
DBIL (9 h): 0.002 mg/dL
GLC (9 h): 192.2 mg/dL
IP (9 h): 9.6 mg/dL
K (9 h): 4.2 meq/L
LDH (9 h): 127.2 IU/L
Na (9 h): 140.6 meq/L
PL (9 h): 129.6 mg/dL
RALB (9 h): 3 g/dL
TBIL (9 h): 0.022 mg/dL
TC (9 h): 71.4 mg/dL
TG (9 h): 77 mg/dL
TP (9 h): 5.5 g/dL
gamma-GTP (9 h): 1.2 IU/L
TERMINAL_BW (24 h): 232.2 g
APTT (24 h): 20.7 s
Bas (24 h): 0%
Eos (24 h): 1.4%
Fbg (24 h): 297.2 mg/dL
Hb (24 h): 12.3 g/dL
Ht (24 h): 38.5%
Lym (24 h): 80.2%
MCH (24 h): 19.9 pg
MCHC (24 h): 31.9%
MCV (24 h): 62.6 fL
Mono (24 h): 2.6%
Neu (24 h): 16%
PT (24 h): 16.5 s
Plat (24 h): 114.4 x10_4/uL
RBC (24 h): 616.2 x10_4/ul
Ret (24 h): 7.5%
WBC (24 h): 87.8 x10_2/uL
KIDNEY_L (24 h): 1 g
KIDNEY_R (24 h): 1 g
KIDNEY_TOTAL (24 h): 2 g
LIVER (24 h): 10.5 g
A/G (24 h): 1.2
ALP (24 h): 1448.8 IU/L
ALT (24 h): 44.6 IU/L
AST (24 h): 73.4 IU/L
BUN (24 h): 15.8 mg/dL
CRE (24 h): 0.2 mg/dL
Ca (24 h): 10.8 mg/dL
Cl (24 h): 105.6 meq/L
DBIL (24 h): 0 mg/dL
GLC (24 h): 184.2 mg/dL
IP (24 h): 7.6 mg/dL
K (24 h): 4.1 meq/L
LDH (24 h): 158.6 IU/L
Na (24 h): 141.8 meq/L
PL (24 h): 140 mg/dL
RALB (24 h): 3.1 g/dL
TBIL (24 h): 0.01 mg/dL
TC (24 h): 79 mg/dL
TG (24 h): 89.8 mg/dL
TP (24 h): 5.5 g/dL
gamma-GTP (24 h): 1.6 IU/L
